Where two headings read alike, the source gives them in different places.
What was measured:
human SLO3 [1] = target: T1, human SLO3 (Homo sapiens, UniProt A8MYU2); parameters: method as in PMID 36649421; conditions: earlier work of the Santi Lab; cited from earlier work
T1 construct: expressed in transfected cells
T1 sequence (A8MYU2 1-1149): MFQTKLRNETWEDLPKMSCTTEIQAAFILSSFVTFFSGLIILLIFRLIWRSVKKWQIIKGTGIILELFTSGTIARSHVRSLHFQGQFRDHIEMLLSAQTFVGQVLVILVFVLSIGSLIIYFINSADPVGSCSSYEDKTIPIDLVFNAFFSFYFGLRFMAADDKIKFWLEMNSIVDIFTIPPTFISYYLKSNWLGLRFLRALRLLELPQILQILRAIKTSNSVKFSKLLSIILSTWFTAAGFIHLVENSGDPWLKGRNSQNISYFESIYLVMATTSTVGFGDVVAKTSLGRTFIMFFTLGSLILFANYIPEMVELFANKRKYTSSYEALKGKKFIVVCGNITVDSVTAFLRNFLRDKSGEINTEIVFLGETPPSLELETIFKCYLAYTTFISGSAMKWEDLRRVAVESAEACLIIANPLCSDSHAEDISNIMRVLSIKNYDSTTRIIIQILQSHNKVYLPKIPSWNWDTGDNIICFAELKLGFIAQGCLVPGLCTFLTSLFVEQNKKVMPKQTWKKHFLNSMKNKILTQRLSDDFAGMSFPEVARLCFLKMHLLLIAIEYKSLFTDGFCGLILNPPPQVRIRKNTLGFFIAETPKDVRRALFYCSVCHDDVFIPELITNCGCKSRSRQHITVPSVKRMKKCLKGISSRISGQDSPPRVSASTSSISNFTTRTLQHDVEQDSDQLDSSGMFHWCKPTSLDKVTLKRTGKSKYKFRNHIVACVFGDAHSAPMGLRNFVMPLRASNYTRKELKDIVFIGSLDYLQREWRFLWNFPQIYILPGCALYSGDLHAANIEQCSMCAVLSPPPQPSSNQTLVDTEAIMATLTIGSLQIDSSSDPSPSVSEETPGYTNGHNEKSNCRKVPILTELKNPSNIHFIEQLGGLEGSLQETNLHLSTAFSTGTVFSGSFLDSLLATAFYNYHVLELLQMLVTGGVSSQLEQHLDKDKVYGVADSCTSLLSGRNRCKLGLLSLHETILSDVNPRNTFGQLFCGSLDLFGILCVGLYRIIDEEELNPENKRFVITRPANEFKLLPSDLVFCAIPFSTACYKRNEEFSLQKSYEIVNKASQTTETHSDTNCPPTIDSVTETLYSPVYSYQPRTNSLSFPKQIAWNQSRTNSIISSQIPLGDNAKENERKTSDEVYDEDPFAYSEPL
T1 sequence (Q8N7C0 24-313 partner): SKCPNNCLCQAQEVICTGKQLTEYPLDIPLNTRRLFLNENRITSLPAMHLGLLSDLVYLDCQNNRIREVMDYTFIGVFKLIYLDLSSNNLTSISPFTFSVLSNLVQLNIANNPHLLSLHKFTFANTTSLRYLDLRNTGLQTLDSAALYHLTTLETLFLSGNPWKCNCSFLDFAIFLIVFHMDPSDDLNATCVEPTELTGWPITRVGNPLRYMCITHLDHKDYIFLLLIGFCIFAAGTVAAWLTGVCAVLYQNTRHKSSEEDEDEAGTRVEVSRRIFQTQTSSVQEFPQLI

hERG [2] = target: T2, hERG (Homo sapiens, UniProt Q12809); parameters: method as in PMID 36649421; conditions: cited from earlier work
T2 construct: expressed in transfected cells

hSLO1 [3] = target: T3, hSLO1 (Homo sapiens, UniProt Q12791); parameters: method as in PMID 36649421; conditions: cited from earlier work
T3 construct: expressed in transfected cells; host or cells: HEK293

hERG [4] = target: T2, hERG; experiment: hERG patch clamp electrophysiology (HEK-293-hERG); format: cell-based; conditions: for selectivity ratio: human, HEK-293 cells stably expressing hERG, pH 7.35, hERG IC50 / hSLO3 IC50, read-out: hERG selectivity [fold] (SLO3 versus hERG); for IC50: whole-cell patch clamp, HEK-293-hERG
Description: Whole-cell patch-clamp electrophysiology was used to record hERG currents from a stably transfected monoclonal cell line expressing human hERG. The HEK-293-hERG cell line was generously provided by Dr. David Weaver (Vanderbilt University). Cells were cultured in a 5% CO2 incubator at 37 °C, dissociated with 0.25% Trypsin-EDTA, and seeded onto 12 mm circular coverslips (Electron Microscopy Sciences, PA, USA) for same-day whole-cell patch-clamp recordings. hERG currents were recorded at room temperature by using an AxoPatch 200B amplifier with Clampex 10.7 software (Molecular Devices, USA). The voltage-clamp protocol consisted of a 4-s step to +30 mV from a −80 mV holding potential, followed by a 4-s step to −40 mV, repeated every 10 s. Data were sampled at 5 kHz and filtered at 1 kHz. Patch pipettes, pulled from 1.5 mm OD thin-walled capillaries (Warner Instruments, MA, USA) using a Sutter P-1000 puller (Sutter Instrument, CA, USA), had resistances of 2–3 MΩ when filled with intracellular solution containing (mM): 135 KCl, 10 HEPES, 1 EGTA, 2 MgCl2, 2 Na2ATP (pH 7.35, adjusted with KOH). The extracellular solution contained (mM): 135 NaCl, 5 KCl, 2 CaCl2, 1 MgCl2, 5 Glucose, 10 HEPES, and 10 Sucrose (pH 7.35, adjusted with NaOH). After establishing stable baseline hERG currents, cells were perfused with compounds at concentrations of 0.03–30 μM until response saturation (typically 2–8 min). Recordings concluded with a 10 μM Quinidine solution to isolate Quinidine-sensitive currents, with compound responses expressed as fractions of this current. Peak “tail” current amplitudes at the beginning of −40 mV steps were analyzed using Clampfit 11.2 (Molecular Devices). IC50 values were calculated by fitting the Hill equation to concentration–response curves (CRCs) using the built-in Y = Bottom + (Top – Bottom)/(1 + (IC50/X)^HillSlope) model (nonlinear regression fit: [Inhibitor] vs response – Variable slope (four parameters)) in GraphPad Prism 10.4 (GraphPad Software).

human SLO3 [5] = target: T1, human SLO3; experiment: SLO3 patch-clamp electrophysiology, human SLO3-γ2 expressed in HEK293 cells; format: cell-based; conditions: transfected HEK293 cells (human SLO3-γ2), whole-cell patch clamp, currents at +100 mV; read-out: hSLO3 IC50
Description: (§1) HEK293 cells were transfected with the bicistronic vector pBUD-CE4.1 containing the genes of interest and a gene conferring antibiotic resistance. Cells were exposed to gradients of selection antibiotics, and optimal growth conditions for the stable lines were as follows: SLO3 and γ2 (SLO3-γ2) supplemented with 700 μg/mL Zeocin (Invitrogen); human SLO1 and β1 (SLO1-β1) with 1 mg/mL G418 (Sigma) and 3 μg/mL puromycin (Corning, Thermo Fisher); and human SLO1 and β4 (SLO1-β4) with 250 μg/mL Zeocin and 3 μg/mL puromycin. All cell lines were grown in Dulbecco’s Modified Eagle Medium (Gibco, Thermo Fisher) supplemented with 10% fetal bovine serum, 1% penicillin–streptomycin (Millipore Sigma), and selection antibiotics. To generate cells expressing SLO1 and γ2, stable SLO1-expressing HEK293 cells were transiently transfected with expression vectors for γ2 and green fluorescent protein (GFP) in the presence of lipofectamine (Invitrogen) for 5 h.
(§2) The cells were then washed and incubated in supplemented Dulbecco’s Modified Eagle Medium for 48 h before use. Patch-clamp electrophysiology was performed only on cells expressing GFP.
(§3) Currents in HEK293 cells were measured in the whole-cell patch-clamp configuration with an Axopatch 200B amplifier, digitized with a Digidata 1440A, and interfaced with Clampex 10.6.0.13 (Molecular Devices). […] An isolated cell was located on an Axiovert 200 microscope (Zeiss), and a gigaohm seal was formed with a borosilicate pipette with resistance between 3 and 6 MΩ and filled with internal solution (140 mM KMeSO3, 10 mM HEPES, 10 mM MES, 1 mM EGTA, pH 7). The seal was then broken by applying a negative pressure. Cells were kept at a holding potential of −60 mV for 50 ms, tested with a stepped voltage protocol from −80 to +150 mV in 10 mV increments for 100 ms, and then dropped to −40 mV for 50 ms with 2.5 s between sweeps. This protocol was used to record currents present with increasing concentration of our compound of interest or 3 μL/mL vehicle (DMSO) in the bath solution. Individual cells were tested with between 1 and 5 concentrations of the compound of interest or until the patch was lost. Currents were allowed to stabilize before the initial recording and after the perfusion solution was changed before recording.
Data were analyzed with a pClamp 10.6 (Molecular Devices). VU6047606 and VU6032735 inhibition dose–response relationships were fit by the Hill equation in OriginPro 7.5 (OriginLab Corporation): R=1/1+(C/IC50)^n+Ioff , in which R is fractional unblock, C is compound concentration, IC50 is the half inhibition concentration, n is the Hill coefficient, and I off is an offset item for leak current. Error bars in the figures represent the SDs. Each data point is averaged from at least 5 measurements. Curve-fitting results are reported as the fitted values with standard error, which was estimated by OriginPro according to the Error Propagation formula.

hSLO1 [6] = target: T3, hSLO1; experiment: SLO1 inhibition in HEK cells; format: cell-based; conditions: for SLO1 selectivity (fold selective for SLO3): SLO1 IC50 / hSLO3 IC50
Description: as §1, §2, §3

T3 sequence (Q12791 whole entry): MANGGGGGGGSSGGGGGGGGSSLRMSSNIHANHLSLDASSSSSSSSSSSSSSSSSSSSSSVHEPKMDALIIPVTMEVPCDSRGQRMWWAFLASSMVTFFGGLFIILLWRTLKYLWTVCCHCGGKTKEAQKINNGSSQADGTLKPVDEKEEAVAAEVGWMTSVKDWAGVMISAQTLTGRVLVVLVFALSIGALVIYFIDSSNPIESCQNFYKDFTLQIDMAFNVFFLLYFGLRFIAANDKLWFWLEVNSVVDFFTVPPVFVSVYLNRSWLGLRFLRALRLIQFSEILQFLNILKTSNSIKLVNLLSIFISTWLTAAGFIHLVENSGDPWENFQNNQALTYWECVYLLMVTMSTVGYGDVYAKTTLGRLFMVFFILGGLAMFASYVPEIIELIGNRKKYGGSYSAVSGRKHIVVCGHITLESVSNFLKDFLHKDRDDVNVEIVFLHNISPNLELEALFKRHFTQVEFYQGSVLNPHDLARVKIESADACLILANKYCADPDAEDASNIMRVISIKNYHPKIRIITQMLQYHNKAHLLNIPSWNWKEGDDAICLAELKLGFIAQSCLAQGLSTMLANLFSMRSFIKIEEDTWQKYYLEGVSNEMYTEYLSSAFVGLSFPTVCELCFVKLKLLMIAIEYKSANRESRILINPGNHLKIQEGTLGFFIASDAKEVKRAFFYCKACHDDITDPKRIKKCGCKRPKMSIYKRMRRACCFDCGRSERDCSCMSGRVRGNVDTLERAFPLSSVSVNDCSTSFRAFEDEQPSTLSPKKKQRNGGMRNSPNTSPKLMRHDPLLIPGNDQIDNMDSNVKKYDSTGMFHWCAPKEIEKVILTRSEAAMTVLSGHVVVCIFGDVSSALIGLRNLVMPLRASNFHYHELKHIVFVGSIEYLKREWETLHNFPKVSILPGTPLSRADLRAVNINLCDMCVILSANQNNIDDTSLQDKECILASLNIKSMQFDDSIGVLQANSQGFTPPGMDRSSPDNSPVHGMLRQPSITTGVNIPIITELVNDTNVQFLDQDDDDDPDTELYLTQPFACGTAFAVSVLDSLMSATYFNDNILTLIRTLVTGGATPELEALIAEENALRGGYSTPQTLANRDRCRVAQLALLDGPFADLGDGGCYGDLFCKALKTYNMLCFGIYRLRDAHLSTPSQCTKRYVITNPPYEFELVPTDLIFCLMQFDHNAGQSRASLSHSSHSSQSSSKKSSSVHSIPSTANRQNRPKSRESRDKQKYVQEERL
T2 sequence (Q12809 whole entry): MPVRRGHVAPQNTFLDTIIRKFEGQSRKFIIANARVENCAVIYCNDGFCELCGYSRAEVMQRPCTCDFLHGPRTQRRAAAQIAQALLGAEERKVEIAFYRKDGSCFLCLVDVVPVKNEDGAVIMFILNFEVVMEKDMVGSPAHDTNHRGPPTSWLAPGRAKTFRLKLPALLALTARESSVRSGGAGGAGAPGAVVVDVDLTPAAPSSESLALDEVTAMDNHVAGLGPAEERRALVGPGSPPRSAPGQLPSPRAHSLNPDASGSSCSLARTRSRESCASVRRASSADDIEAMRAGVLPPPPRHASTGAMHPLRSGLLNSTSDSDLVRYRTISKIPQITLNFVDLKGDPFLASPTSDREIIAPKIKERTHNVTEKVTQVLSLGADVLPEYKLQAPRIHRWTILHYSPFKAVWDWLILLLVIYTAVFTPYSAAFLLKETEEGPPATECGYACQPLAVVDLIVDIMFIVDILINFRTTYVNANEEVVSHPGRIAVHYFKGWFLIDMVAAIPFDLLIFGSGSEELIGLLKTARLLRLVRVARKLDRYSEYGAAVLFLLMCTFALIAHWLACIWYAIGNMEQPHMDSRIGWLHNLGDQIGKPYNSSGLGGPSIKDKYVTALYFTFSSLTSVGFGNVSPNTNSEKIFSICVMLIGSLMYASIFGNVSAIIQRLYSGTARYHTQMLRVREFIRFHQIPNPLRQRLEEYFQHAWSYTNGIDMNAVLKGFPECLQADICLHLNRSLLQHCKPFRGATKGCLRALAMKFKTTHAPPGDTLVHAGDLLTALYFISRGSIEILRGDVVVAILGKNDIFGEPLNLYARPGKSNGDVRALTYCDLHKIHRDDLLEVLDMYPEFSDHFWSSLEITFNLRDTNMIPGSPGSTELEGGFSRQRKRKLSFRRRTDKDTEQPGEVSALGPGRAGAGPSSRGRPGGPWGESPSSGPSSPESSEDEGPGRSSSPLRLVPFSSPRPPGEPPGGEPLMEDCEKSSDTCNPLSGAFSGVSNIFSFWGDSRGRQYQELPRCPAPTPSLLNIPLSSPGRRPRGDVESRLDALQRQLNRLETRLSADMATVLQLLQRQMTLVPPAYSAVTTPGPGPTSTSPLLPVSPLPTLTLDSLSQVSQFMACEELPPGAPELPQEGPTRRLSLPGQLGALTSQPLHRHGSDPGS

Row | IC50 (human SLO3 [5]) [nM] | IC50 (hSLO1 [6]) [nM] | SLO1 selectivity (fold selective for SLO3) (hSLO1 [6]) [fold] | SMILES | IC50 (human SLO3 [1]) [nM] | selectivity for SLO3 over hERG (hERG [2]) [fold] | selectivity for SLO3 over SLO1 (hSLO1 [3]) [fold] | selectivity ratio (hERG [4]) | IC50 (hERG [4]) [nM]
1 | – | – | – | COc1ccc(SCC2CCN(C(=O)Cc3ccc(S(=O)(=O)C(C)C)cc3)CC2)cc1 [VU0546110] | 1290 | 1.5 | 46 | – | –
2 | 223 | 34000 | 153 | O=C(CCCS(=O)(=O)c1ccc(Cl)cc1)N1CCC(Oc2nc3ccccc3s2)CC1 [VU0528254] | – | – | – | 4.2 | 928
3 | 445 | 6380 | 14 | O=C(c1ccc(OCc2nc(C3CC3)cs2)cc1)N1CCN(c2ccc(C(F)(F)F)cn2)CC1 [VU0530373] | – | – | – | 1.1 | 511
